SMILES strings stand for the structures. ≈ marks a conversion by molar mass, not a printed value. Calls of active or inactive are those of the source. The rule behind the calls is not given here.

One may read the IC50 as the midpoint of a concentration-inhibition curve. Higher therefore signals a need for much substance.

The nature of test [1]: Cytotoxicity against mouse B16-F1 cells. The class given is functional, cell-based.
Test [2] relates to P388. The test can be described thus: In vivo cytotoxicity against mouse P388 cells. In kind it is functional, organism-based.
Test [3] deals with P388. The test can be described thus: Cytotoxicity against mouse P388 cells. In kind it is functional, cell-based.

Consider `COC(=O)C[C@@H]1OO[C@@](C)(/C(C)=C/C(C)=C/Cc2ccccc2)C[C@H]1C`, for which inhibition in test [1] was half-maximal at 12 µg/mL (≈ 33.5 µM) (IC50). Moreover, the result in the test with P388 [2] was inactive.

Compound `CC/C=C/C(CC)CC(C)Cc1cc(CC)c(CC(=O)O)o1` (stereo not drawn) [GLANVILLIC ACID A] displayed an IC50 in the test on P388 [3] greater than 20 µg/mL.

For the compound `CC/C=C/C(CC)CC(C)CC1(CC)C=C(CC)C(C(=O)O)OO1` (stereo not drawn), the IC50 in the test with P388 [3] was 0.055 µg/mL (≈ 0.162 µM). The outcome in the test on P388 [2] was inactive.

The compound `CCCC(CC)CC(C)Cc1cc(CC)c(CC(=O)O)o1` (stereo not drawn) [GLNVILLIC ACID B] showed an IC50 in the test with P388 [3] greater than 20 µg/mL.

In the case of `COC(=O)C[C@@H]1OO[C@@](C)(/C(C)=C/C=C/Cc2ccccc2)C[C@H]1C` [METHYL CAPUCINOATE A], in test [1], 12 µg/mL (≈ 34.8 µM) corresponded to half-maximal inhibition (IC50). Besides, the result in the test with P388 [2] was inactive.

These data come from ChEMBL document CHEMBL1150562, “Glánvillic acids A and B and methyl capucinoate A, new metabolites isolated from the Caribbean sponges Plakortis halichondrioides and Plakinastrella onkodes” (J Nat Prod, 2001).
